Laboratory results from ChEMBL document CHEMBL1926524, “Cyclolobatriene, a novel prenylated germacrene diterpene, from the soft coral Lobophytum pauciflorum” (Bioorg Med Chem, 2012).

What follows are compounds tested on A-431 (assay: Cytotoxicity against human A431 cells after 4 days by coulter counting). Conditions: A-431, 96 h.
Type: functional, cell-based

First: C/C1=C\C[C@@H](C2=CC[C@H](C(C)(C)O)OC2)CC/C(C)=C/CC1 [CYCLOLOBATRIENE]
Second: C/C1=C\C[C@@H](/C(C)=C/C=C/C(C)(C)O)CC/C(C)=C/CC1 [EUNICOL]
The IC50 of the first is 1.8-fold higher: 640 nM for the first, 350 nM for the second.

`C=C[C@@]1(C)CC[C@H](/C(C)=C/C=C/C(C)(C)O)C[C@@H]1C(=C)C` [FUSCOL] and `C=C[C@@]1(C)CC[C@H](C2=CC[C@H](C(C)(C)O)OC2)C[C@@H]1C(=C)C` [LOBATRIENE] are within 1.5-fold of each other in IC50: 520 nM for the first, 410 nM for the second.
